Several values for one entry are separate records, joined by “and”; a condition that tells them apart may be missing. Equal values may be shown once. Activity calls are given as the source filed them.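 The calls were made as follows: active = fitted curve drops to -35% activity change at a dose no higher than twice the top valid tested dose; inconclusive = no clear call, values can overlap the other calls; inactive = the rest, including effects opposite to the expected drop.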
system: TC71 Ewing sarcoma viability, CellTiter-Glo ATP, 72 h; assay: killing of EWS/Fli1-dependent TC71 cells, confirmation, cell-based, luminescence, retest at dose, dry powder (AID 743477); details: not given

Going from `N#CC1=C(N)Oc2cc(O)ccc2C1c1cccc(Br)c1` (stereo not drawn) to `N#CC1=C(N)Oc2cc(N)ccc2C1c1cccc(Br)c1` (stereo not drawn), the AC35 falls from 2.72 µM to 0.183 µM (15-fold).

`COc1ccc(C(=O)CC2(O)C(=O)Nc3c(Cl)ccc(Cl)c32)cc1` (stereo not drawn) and `COc1ccc(S(=O)(=O)N2CC[C@@H]3[C@@H](CO)Nc4ccc(-c5cccc(C#N)c5)cc4[C@@H]32)cc1` are within 1.5-fold of each other in AC35: 2.93 µM for the first, 4.14 µM for the second.

`N#CC1=C(N)Oc2cc(N)ccc2C1c1ccccc1` (stereo not drawn) and `Cc1ccccc1C1C(C#N)=C(N)Oc2cc(N)ccc21` (stereo not drawn) are within 1.5-fold of each other in AC35: 12.8 µM for the first, 13.2 µM for the second.

First: CCC(C)C(=O)OC1CC(C)C=C2C=CC(C)C(CCC(O)CC(O)CC(=O)O)C21 (stereo not drawn)
Second: CC(C)N1c2ccccc2C(c2ccc(F)cc2)C1/C=C/C(O)CC(O)CC(=O)O (stereo not drawn)
The AC35 of the first is 17-fold higher: 45.3 µM for the first, 2.59 µM for the second.

Going from `CN(C)c1ccc2c(c1)OC(N)=C(C#N)C2c1cccc(F)c1` (stereo not drawn) to `N#CC1=C(N)Oc2cc(N)ccc2C1c1cccc(F)c1` (stereo not drawn), the AC35 rises from 0.0214 µM to 1.77 µM (83-fold).

First: CCc1c2c(nc3ccc(O)cc13)-c1cc3c(c(=O)n1C2)COC(=O)C3(O)CC (stereo not drawn)
Second: CC[C@@]1(O)C(=O)OCc2c1cc1n(c2=O)Cc2cc3c(CN(C)C)c(O)ccc3nc2-1
The AC35 of the first is 15-fold lower: 0.00199 µM for the first, 0.029 µM for the second.

Compared with `Cc1cc(Nc2cc(N3CCN(C)CC3)nc(Sc3ccc(NC(=O)C4CC4)cc3)n2)n[nH]1`, `Cc1nc(Nc2ncc(C(=O)Nc3c(C)cccc3Cl)s2)cc(N2CCN(CCO)CC2)n1` is 12-fold higher in AC35: 2.15 µM for the first, 26.8 µM for the second.

Going from `COc1cc(C2C(C#N)=C(N)Oc3cc(N(C)C)ccc32)cc2c1OCO2` (stereo not drawn) to `N#CC1=C(N)Oc2cc3c(cc2C1c1cccc(Br)c1)OCO3` (stereo not drawn), the AC35 falls from 0.132 µM to 0.0497 µM (2.7-fold).

Going from `COc1ccc(-c2cc(NC=O)c3ncc(-c4ccc(OC)c(OC)c4)n3c2)cc1` to `COc1ccc(C2=Nn3c(nnc3-c3ccccc3OC)SC2)cc1OC`, the AC35 falls from 0.563 µM to 0.0613 µM (9.2-fold).

First: C[C@@]1(C(=O)Nc2ccc(F)nc2)CCCN1c1nc(Nc2cc(C3CC3)[nH]n2)c2cccn2n1
Second: O=C(c1cc(Cc2n[nH]c(=O)c3ccccc23)ccc1F)N1CCN(C(=O)C2CC2)CC1
The AC35 of the first is 5-fold lower: 0.458 µM for the first, 2.3 µM for the second.

First: C=C([C@@H](O)[C@@H](C)O)[C@@H](OC)[C@]1(C)Cc2cc3cc(O[C@H]4CC(OC5CC(O)C(O)C(C)O5)C(O)C(C)O4)cc(O)c3c(O)c2C(=O)[C@H]1OC1CC(OC2CC(OC3CC(C)(O)C(O)C(C)O3)C(O)C(C)O2)C(O)C(C)O1 (stereo partly drawn)
Second: COc1cc([C@@H]2c3cc4c(cc3[C@@H](O[C@@H]3O[C@@H]5CO[C@@H](C)O[C@H]5[C@H](O)[C@H]3O)[C@H]3COC(=O)[C@H]23)OCO4)cc(OC)c1O
The AC35 of the first is 10-fold lower: 0.0558 µM for the first, 0.577 µM for the second.

First: CN1c2ccc(-c3ccc(C#N)cc3)cc2[C@H]2[C@H](CCN2S(=O)(=O)c2cccc(F)c2)[C@H]1CO
Second: N#Cc1ccc(-c2ccc3c(c2)[C@H]2[C@H](CCN2S(=O)(=O)c2cccc(F)c2)[C@@H](CO)N3)cc1
The AC35 of the first is 2.1-fold lower: 3.76 µM for the first, 7.8 µM for the second.

Going from `Cn1cc(-c2ccncc2)c(-c2ccc(OCc3ccc4ccccc4n3)cc2)n1` to `CC1(C)CC(c2nc(-c3ccc4ccc(-c5ccccc5)nc4c3)c3c(N)nccn23)C1`, the AC35 falls from 20 µM to 4.5 µM (4.4-fold).

`COc1ccccc1S(=O)(=O)N1CC[C@@H]2[C@@H](CO)Nc3ccc(-c4ccc(C#N)cc4)cc3[C@@H]21` and `N#Cc1ccc(-c2ccc3c(c2)[C@H]2[C@H](CCN2S(=O)(=O)c2ccccc2F)[C@@H](CO)N3)cc1` are within 1.5-fold of each other in AC35: 10.5 µM for the first, 11 µM for the second.

First: COc1ccccc1-c1nnc2n1N=C(c1ccc3c(c1)OCO3)CS2
Second: Clc1ccccc1-c1nnc2n1N=C(c1ccc3c(c1)OCO3)CS2
The AC35 of the first is 20-fold lower: 0.0207 µM for the first, 0.411 µM for the second.

First: Cc1ccc([N+](=O)[O-])cc1S(=O)(=O)N(C)C
Second: COc1ccc(S(=O)(=O)N(C(C)=O)c2ccc(OC(C)=O)c3ccccc23)cc1[N+](=O)[O-]
The AC35 of the first is 1.8-fold higher: 7.95 µM for the first, 4.46 µM for the second.

First: COc1ccc(C2=Nn3c(nnc3-c3ccccc3F)SC2)cc1OC
Second: COc1ccc(C2=Nn3c(nnc3-c3ccccc3Cl)SC2)cc1OC
The AC35 of the first is 7.8-fold higher: 3.34 µM for the first, 0.427 µM for the second.

Going from `COc1cccc(S(=O)(=O)N2CC[C@@H]3[C@@H](CO)Nc4ccc(-c5ccc(C#N)cc5)cc4[C@@H]32)c1` to `COc1ccc(S(=O)(=O)N2CC[C@@H]3[C@@H](CO)Nc4ccc(-c5ccc(C#N)cc5)cc4[C@@H]32)cc1`, the AC35 falls from 21 µM to 3.78 µM (5.6-fold).

Compared with `CCOC(=O)CCNc1cc(N2CCc3ccccc3CC2)nc(-c2ccccn2)n1`, `O=C(Cc1ccc(-c2ccc(OCCN3CCOCC3)cc2)cn1)NCc1ccccc1` is lower in AC35: 2.59 µM for the first, under 0.0235 µM for the second.

`Cc1cccc(C2C(C#N)=C(N)Oc3cc(N)ccc32)c1` (stereo not drawn) and `COc1cccc(C2C(C#N)=C(N)Oc3cc(N)ccc32)c1` (stereo not drawn) are within 1.5-fold of each other in AC35: 0.689 µM for the first, 0.571 µM for the second.

`COc1ccc(S(=O)(=O)N2CC[C@@H]3[C@@H](CO)N(C)c4ccc(-c5ccc(F)cc5)cc4[C@@H]32)cc1` and `COc1ccc(-c2ccc3c(c2)[C@H]2[C@H](CCN2S(=O)(=O)c2ccc(OC)cc2)[C@@H](CO)N3C)cc1` are within 1.5-fold of each other in AC35: 3.41 µM for the first, 3.19 µM for the second.

`CC[C@]1(O)CC2CN(CCc3c([nH]c4ccccc34)[C@@](C(=O)OC)(c3cc4c(cc3OC)N(C=O)[C@H]3[C@@](O)(C(=O)OC)[C@H](OC(C)=O)[C@]5(CC)C=CCN6CC[C@]43[C@@H]65)C2)C1` (stereo partly drawn) and `COc1cccc2c1C(=O)c1c(O)c3c(c(O)c1C2=O)C[C@@](O)(C(=O)CO)C[C@@H]3O[C@H]1C[C@H](N)[C@H](O)[C@H](C)O1` cannot be ordered by AC35: under 0.0015 µM for the first, under 0.05 µM for the second.

`CCCCc1ccc2nc(NC(=O)OC)[nH]c2c1` and `CC(C)(O)CCc1ccc(O)c2c(=O)c3c(O)c4c(cc3oc12)O[C@H]1OC=C[C@@]41O` cannot be ordered by AC35: under 0.05 µM for the first, under 0.026 µM for the second.

Going from `CN1CCN(CCOc2cc(OC3CCOCC3)c3c(Nc4c(Cl)ccc5c4OCO5)ncnc3c2)CC1` to `Nc1ncnc2c1c(-c1cccc(OCc3ccccc3)c1)cn2C1CC(CN2CCCC2)C1` (stereo not drawn), the AC35 falls from 21.2 µM to 10.5 µM (2-fold).

First: COc1ccc(-c2ccc3c(c2)[C@H]2[C@H](CCN2S(=O)(=O)c2ccc(OC)cc2)[C@@H](CO)N3)cc1
Second: COc1ccc(S(=O)(=O)N2CC[C@@H]3[C@H](CO)Nc4ccc(-c5ccc(C#N)cc5)cc4[C@@H]32)cc1
The AC35 of the first is 2.1-fold lower: 3.72 µM for the first, 7.92 µM for the second.

`N#CC1=C(N)Oc2cc(N)ccc2C1c1ccccc1Cl` (stereo not drawn) and `N#CC1=C(N)Oc2cc(N)ccc2C1c1ccc2ccccc2c1` (stereo not drawn) are within 1.5-fold of each other in AC35: 10.6 µM for the first, 11.9 µM for the second.

First: N#CC1=C(N)Oc2cc(OC(=O)c3ccccc3)ccc2C1c1cccc(Br)c1 (stereo not drawn)
Second: N#CC1=C(N)Oc2ccc3ccccc3c2C1c1cccc(F)c1 (stereo not drawn)
The AC35 of the first is 4.5-fold higher: 3.08 µM for the first, 0.677 µM for the second.

Going from `Cc1ccc(S(=O)(=O)N2CC[C@@H]3[C@@H](CO)Nc4ccc(-c5ccc(C#N)cc5)cc4[C@@H]32)cc1` to `COc1ccccc1-c1nnc2n1N=C(c1ccc(O)c(O)c1)CS2`, the AC35 falls from 18.6 µM to 1.32 µM (14-fold).

First: Cc1c([C@H](C(Cl)Cl)[C@H](O)[C@H]2C[C@H](C)C(=O)O2)ccc2c1C(=O)[C@H]1[C@H]2C[C@@H](Br)[C@@]23O[C@@H](CO[C@H]2O)C[C@]13C
Second: Nc1ccn([C@@H]2O[C@H](CO)[C@H](O)C2O)c(=O)n1 (stereo partly drawn)
The AC35 of the first is lower: under 0.05 µM for the first, 0.585 µM for the second.

For `COc1ccc(OC)c(-c2nnc3n2N=C(c2ccc(OC)c(OC)c2)CS3)c1`, the AC35 was 0.0276 µM and 0.0226 µM.

system: not listed separately; assay: as above; details: TC71 Ewing sarcoma viability, CellTiter-Glo ATP, 72 h; at 1.6 µM (top of the series)

With `CCN(CCO)CCCOc1ccc2c(Nc3cc(CC(=O)Nc4cccc(F)c4)[nH]n3)ncnc2c1` the activity change, negative = cytotoxicity was -35.4% (inactive).

same assay, conditions: TC71 Ewing sarcoma viability, CellTiter-Glo ATP, 72 h; at 6 µM (top of the series)

With `Clc1ccc(-c2cnc3ccc(-c4ccccc4)cn23)cc1` the activity change, negative = cytotoxicity was -1.71% (inactive).

same assay, conditions: TC71 Ewing sarcoma viability, CellTiter-Glo ATP, 72 h; at 12 µM (top of the series)

In the case of `COc1ccc(NC(=O)Nc2ccc3c(c2)C(=O)N([C@@H](C)CO)C[C@H](C)[C@H](CN(C)Cc2ccc4c(c2)OCO4)O3)cc1`, the activity change, negative = cytotoxicity is reported as -31.5% (inactive).

same assay, conditions: TC71 Ewing sarcoma viability, CellTiter-Glo ATP, 72 h; at 26 µM (top of the series)

For `N#CC1=C(N)Oc2cc(N)ccc2C12C(=O)Nc1ccc(Br)cc12` (stereo not drawn), the activity change, negative = cytotoxicity was -13% (inactive).
For `Cc1ccc(C2C(C#N)=C(N)Oc3cc(N)ccc32)cc1` (stereo not drawn), the activity change, negative = cytotoxicity was -0.007% (inactive).
In the case of `COc1ccc(CNc2nc(N3CCC[C@H]3CO)ncc2C(=O)NCc2ncccn2)cc1Cl`, the activity change, negative = cytotoxicity is reported as -6.81% (inactive).
With `CN1c2ccc(-c3ccc(C#N)cc3)cc2[C@H]2[C@H](CCN2S(=O)(=O)c2ccc(F)cc2)[C@H]1CO` the activity change, negative = cytotoxicity was -15.7% (inactive).
With `N#CC1=C(N)Oc2cc(N)ccc2C1c1ccc(Cl)cc1` (stereo not drawn) the activity change, negative = cytotoxicity was -10.5% (inactive).
With `C[C@]1(c2nc3c(C(N)=O)cccc3[nH]2)CCCN1` the activity change, negative = cytotoxicity was -3.66% (inactive).
In the case of `COc1ccc(C2CNC(=O)C2)cc1OC1CCCC1` (stereo not drawn), the activity change, negative = cytotoxicity is reported as 1.67% (inactive).
With `O=C(Nc1c(Cl)cncc1Cl)c1ccc(OC(F)F)c(OCC2CC2)c1` the activity change, negative = cytotoxicity was -7.16% (inactive).
For `COc1ccc(C2C(C#N)=C(N)Oc3cc(N)ccc32)cc1` (stereo not drawn), the activity change, negative = cytotoxicity was -6.57% (inactive).
In the case of `CCC(C)(C)C(=O)O[C@H]1C[C@@H](C)C=C2C=C[C@H](C)[C@H](CC[C@@H]3C[C@@H](O)CC(=O)O3)[C@H]21`, the activity change, negative = cytotoxicity is reported as -7.31% (inactive).
With `COc1ccc(-c2cc(NC(C)=O)c3ncc(-c4ccc(OC)c(OC)c4)n3c2)cc1` the activity change, negative = cytotoxicity was -8.1% (inactive).
For `COc1ccc(C2=Nn3c(nnc3-c3ccccc3)SC2)cc1OC`, the activity change, negative = cytotoxicity was -10.7% (inactive).
In the case of `CN(C(=O)CCCOc1ccc2[nH]c(=O)ccc2c1)C1CCCCC1`, the activity change, negative = cytotoxicity is reported as -11% (inactive).
For `COc1ccccc1C1C(C#N)=C(N)Oc2cc(N)ccc21` (stereo not drawn), the activity change, negative = cytotoxicity was -24.3% (inactive).
In the case of `COC(=O)c1ccc(C2C(C#N)=C(N)Oc3cc(N)ccc32)cc1` (stereo not drawn), the activity change, negative = cytotoxicity is reported as -13.5% (inactive).

same assay, conditions: TC71 Ewing sarcoma viability, CellTiter-Glo ATP, 72 h; at 50 µM (top of the series)

For `O=P1(NCCCl)OCCCN1CCCl` (stereo not drawn), the activity change, negative = cytotoxicity was 3.6% (inactive).

— PubChem BioAssay AID743477 (Broad Institute, 2014)
